Results: the supplement of paper PMC10307832

Legend:
Experiment in all cases: relative viability (nuclei count vs DMSO), 5 days (fraction); higher = more cells survive
[1] = system: NCI-H2228
In short: (§1)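 Lung cancer cell lines in 1536-well plates were dosed by pin tool the day after seeding, either with one drug alone or with a fixed anchor-drug dose plus five library-drug doses (not always all listed) in √10 steps. After 5 days, cells were fixed and their nuclei stained in one step (final 0.05% Triton X-100, 1% formaldehyde, 1 ug/ml Hoechst), then counted on 4× images. Relative viability is the nuclei count in treated wells divided by that in vehicle wells. Values are medians of duplicate plates.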

[2] = system: NCI-H1993
In short: as §1

[3] = system: PC-3 [JPC-3]
In short: as §1

[4] = system: HOP-62
In short: as §1

[5] = system: LU99A
In short: as §1

[6] = system: COR-L23
In short: as §1

[7] = system: NCI-H596
In short: as §1

[8] = system: HARA
In short: as §1

[9] = system: NCI-H1792
In short: as §1

[10] = system: A-427
In short: as §1

[11] = system: NCI-H2009
In short: as §1

[12] = system: NCI-H727
In short: as §1

[13] = system: SK-MES-1
In short: as §1

[14] = system: NCI-H2170
In short: as §1

[15] = system: SW 1573
In short: as §1

[16] = system: NCI-H1944
In short: as §1

[17] = system: NCI-H3122
In short: as §1

[18] = system: EMC-BAC-2
In short: as §1

[19] = system: NCI-H1793
In short: as §1

[20] = system: LK-2
In short: as §1

[21] = system: LXF-289
In short: as §1

[22] = system: SK-LU-1
In short: as §1

`COc1cc(N2CCC(C(N)=O)CC2)ccc1Nc1nc(N)c(Cl)c(Nc2ccccc2S(=O)(=O)C(C)C)n1` [HG-5-88-01] + CC1(C)CCC(c2ccc(Cl)cc2)=C(CN2CCN(c3ccc(C(=O)NS(=O)(=O)c4ccc(N[C@H](CCN5CCOCC5)CSc5ccccc5)c(S(=O)(=O)C(F)(F)F)c4)cc3)CC2)C1 [Navitoclax] (partner 0.5 µM) was tested, and the relative viability ([1]; first compound 0.04 µM) was 0.65, the relative viability ([1]; first compound 0.1265 µM) was 0.295 and the relative viability ([1]; first compound 0.4 µM) was 0.485. The relative viability ([1]; first compound 1.265 µM) was 0.417, the relative viability ([1]; first compound 4 µM) was 0.27 and the relative viability ([2]; first compound 0.04 µM) was 1.06. For the same compound, the relative viability ([2]; first compound 0.1265 µM) was 0.976, the relative viability ([2]; first compound 0.4 µM) was 0.911 and the relative viability ([2]; first compound 1.265 µM) was 0.736. It also gave a relative viability ([2]; first compound 4 µM) of 0.735, a relative viability ([3]; first compound 0.04 µM) of 0.837 and a relative viability ([3]; first compound 0.1265 µM) of 0.83. The relative viability ([3]; first compound 0.4 µM) was 0.841, the relative viability ([3]; first compound 1.265 µM) was 0.753 and the relative viability ([3]; first compound 4 µM) was 0.751. The relative viability ([4]; first compound 0.04 µM) was 0.987, the relative viability ([4]; first compound 0.1265 µM) was 0.948 and the relative viability ([4]; first compound 0.4 µM) was 0.986. The relative viability ([4]; first compound 1.265 µM) was 0.919, the relative viability ([4]; first compound 4 µM) was 1.01 and the relative viability ([5]; first compound 0.04 µM) was 0.781. For the same compound, the relative viability ([5]; first compound 0.1265 µM) was 0.96, the relative viability ([5]; first compound 0.4 µM) was 0.75 and the relative viability ([5]; first compound 1.265 µM) was 0.764. It also gave a relative viability ([5]; first compound 4 µM) of 0.996, a relative viability ([6]; first compound 0.04 µM) of 0.936 and a relative viability ([6]; first compound 0.1265 µM) of 1. For the same compound, the relative viability ([6]; first compound 0.4 µM) was 0.998, the relative viability ([6]; first compound 1.265 µM) was 0.883 and the relative viability ([6]; first compound 4 µM) was 0.98. For the same compound, the relative viability ([7]; first compound 0.04 µM) was 0.943, the relative viability ([7]; first compound 0.1265 µM) was 0.98 and the relative viability ([7]; first compound 0.4 µM) was 1.06. It also gave a relative viability ([7]; first compound 1.265 µM) of 1.02, a relative viability ([7]; first compound 4 µM) of 0.901 and a relative viability ([8]; first compound 0.04 µM) of 1.16. It also gave a relative viability ([8]; first compound 0.1265 µM) of 1.14, a relative viability ([8]; first compound 0.4 µM) of 1.13 and a relative viability ([8]; first compound 1.265 µM) of 1.19. It also gave a relative viability ([8]; first compound 4 µM) of 1.18, a relative viability ([9]; first compound 0.04 µM) of 0.685 and a relative viability ([9]; first compound 0.1265 µM) of 0.614. For the same compound, the relative viability ([9]; first compound 0.4 µM) was 0.578, the relative viability ([9]; first compound 1.265 µM) was 0.685 and the relative viability ([9]; first compound 4 µM) was 0.738. For the same compound, the relative viability ([10]; first compound 0.04 µM) was 0.97, the relative viability ([10]; first compound 0.1265 µM) was 1.04 and the relative viability ([10]; first compound 0.4 µM) was 0.956. For the same compound, the relative viability ([10]; first compound 1.265 µM) was 1.04, the relative viability ([10]; first compound 4 µM) was 0.835 and the relative viability ([11]; first compound 0.04 µM) was 1.2. For the same compound, the relative viability ([11]; first compound 0.1265 µM) was 1.32, the relative viability ([11]; first compound 0.4 µM) was 1.15 and the relative viability ([11]; first compound 1.265 µM) was 1.06. The relative viability ([11]; first compound 4 µM) was 1.15, the relative viability ([12]; first compound 0.04 µM) was 0.532 and the relative viability ([12]; first compound 0.1265 µM) was 0.416. For the same compound, the relative viability ([12]; first compound 0.4 µM) was 0.469, the relative viability ([12]; first compound 1.265 µM) was 0.224 and the relative viability ([12]; first compound 4 µM) was 0.0929. For the same compound, the relative viability ([13]; first compound 0.04 µM) was 1.17, the relative viability ([13]; first compound 0.1265 µM) was 1.29 and the relative viability ([13]; first compound 0.4 µM) was 1.2. For the same compound, the relative viability ([13]; first compound 1.265 µM) was 1.21, the relative viability ([13]; first compound 4 µM) was 1.03 and the relative viability ([14]; first compound 0.04 µM) was 0.554. For the same compound, the relative viability ([14]; first compound 0.1265 µM) was 0.574, the relative viability ([14]; first compound 0.4 µM) was 0.674 and the relative viability ([14]; first compound 1.265 µM) was 0.311. The relative viability ([14]; first compound 4 µM) was 0.73, the relative viability ([15]; first compound 0.04 µM) was 0.952 and the relative viability ([15]; first compound 0.1265 µM) was 1.05. The relative viability ([15]; first compound 0.4 µM) was 0.9, the relative viability ([15]; first compound 1.265 µM) was 0.996 and the relative viability ([15]; first compound 4 µM) was 0.863. It also gave a relative viability ([16]; first compound 0.04 µM) of 1.03, a relative viability ([16]; first compound 0.1265 µM) of 1.15 and a relative viability ([16]; first compound 0.4 µM) of 1.11. The relative viability ([16]; first compound 1.265 µM) was 0.985, the relative viability ([16]; first compound 4 µM) was 1.04 and the relative viability ([17]; first compound 0.04 µM) was 0.905. It also gave a relative viability ([17]; first compound 0.1265 µM) of 0.611, a relative viability ([17]; first compound 0.4 µM) of 0.444 and a relative viability ([17]; first compound 1.265 µM) of 0.198. For the same compound, the relative viability ([17]; first compound 4 µM) was 0.255, the relative viability ([18]; first compound 0.04 µM) was 1.11 and the relative viability ([18]; first compound 0.1265 µM) was 1.23. For the same compound, the relative viability ([18]; first compound 0.4 µM) was 1.12, the relative viability ([18]; first compound 1.265 µM) was 1.05 and the relative viability ([18]; first compound 4 µM) was 1.22. For the same compound, the relative viability ([19]; first compound 0.1265 µM) was 0.409, the relative viability ([19]; first compound 0.4 µM) was 0.473 and the relative viability ([19]; first compound 1.265 µM) was 0.296. It also gave a relative viability ([19]; first compound 4 µM) of 0.438, a relative viability ([20]; first compound 0.04 µM) of 0.872 and a relative viability ([20]; first compound 0.1265 µM) of 1.03. For the same compound, the relative viability ([20]; first compound 0.4 µM) was 0.805, the relative viability ([20]; first compound 1.265 µM) was 0.377 and the relative viability ([20]; first compound 4 µM) was 0.541. The relative viability ([21]; first compound 0.04 µM) was 0.937, the relative viability ([21]; first compound 0.1265 µM) was 0.979 and the relative viability ([21]; first compound 0.4 µM) was 0.972. It also gave a relative viability ([21]; first compound 1.265 µM) of 1.01, a relative viability ([21]; first compound 4 µM) of 1.02 and a relative viability ([22]; first compound 0.04 µM) of 0.997. It also gave a relative viability ([22]; first compound 0.1265 µM) of 0.99, a relative viability ([22]; first compound 0.4 µM) of 0.791 and a relative viability ([22]; first compound 1.265 µM) of 0.98. For the same compound, the relative viability ([22]; first compound 4 µM) was 0.791.
